Measured values from patent US4996207A, “Three new non-polyglutamatable deazaaminopterins” (priority 1990, dated 1991).
“And” between values parts separate entries of the source, which are not always exact repeats. Equal values may be shown once. “Also recorded” adds a separate entry of the source. Read-outs that look alike come from different tables or passages of the source.

Legend:
[1] = molecular target: T1, folylpolyglutamate synthetase (FPGS) (Homo sapiens, UniProt Q05932); assay: Substrate activity towards CCRF-CEM human leukemia cell folylpolyglutamate synthetase (FPGS); assay type: biochemical; conditions: for Substrate activity: Conc 50 μM, CCRF-CEM human leukemia cell FPGS; for substrate for folylpolyglutamate synthetase: result in words
T1 construct: purified human leukemia cell folylpolyglutamate synthetase (FPGS); endogenous in cells; host or cells: CCRF-CEM human leukemia cells
T1 sequence (Q05932 43-587): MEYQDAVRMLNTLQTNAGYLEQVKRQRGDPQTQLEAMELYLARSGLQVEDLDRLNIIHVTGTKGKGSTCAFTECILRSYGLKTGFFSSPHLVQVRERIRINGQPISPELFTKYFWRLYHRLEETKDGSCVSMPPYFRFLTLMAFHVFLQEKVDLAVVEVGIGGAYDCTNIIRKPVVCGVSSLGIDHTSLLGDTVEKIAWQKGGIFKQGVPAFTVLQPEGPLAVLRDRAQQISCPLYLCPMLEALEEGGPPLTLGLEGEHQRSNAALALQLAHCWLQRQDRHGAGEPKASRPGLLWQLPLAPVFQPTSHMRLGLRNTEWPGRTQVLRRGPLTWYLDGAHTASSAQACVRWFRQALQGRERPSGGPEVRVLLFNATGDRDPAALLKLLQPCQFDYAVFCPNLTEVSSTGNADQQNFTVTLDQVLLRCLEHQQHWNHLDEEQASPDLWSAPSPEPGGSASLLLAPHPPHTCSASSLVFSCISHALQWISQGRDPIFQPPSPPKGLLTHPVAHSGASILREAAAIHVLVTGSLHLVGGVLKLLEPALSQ
Experimental: Compounds 1, 2 and 3 were evaluated as substrates of purified human leukemia cell folylpolyglutamate synthetase (FPGS).
The assays were performed as described by McGuire, Graber, Licato, Vincenz, Coward, Nimec and Galivan in Cancer Research 49:4517 (1989).

[2] = result in words, cited from earlier work
[3] = cited from earlier work
[4] = test system: H35 hepatoma cells; assay: Inhibition of tumor cell growth, H35 hepatoma; assay type: cell-based; conditions: read-out: I50, inhibition of tumor cell growth, H35 hepatoma
[5] = test system: Human manca lymphoid leukemia; assay: Inhibition of tumor cell growth, Human manca lymphoid leukemia; assay type: cell-based; conditions: read-out: I50, inhibition of tumor cell growth, Human manca lymphoid leukemia
[6] = test system: CCRF-CEM human leukemia cells; assay: Inhibition of tumor cell growth, CCRF-CEM human leukemia; assay type: cell-based
[7] = molecular target: T2, human dihydrofolate reductase (Homo sapiens, UniProt P00374); assay: Inhibition of dihydrofolate reductase; assay type: biochemical; conditions: pure human enzyme from lymphoblastoid cells
T2 construct: Pure human dihydrofolate reductase from lymphoblastoid cells were used; endogenous in cells
T2 sequence (P00374 1-187): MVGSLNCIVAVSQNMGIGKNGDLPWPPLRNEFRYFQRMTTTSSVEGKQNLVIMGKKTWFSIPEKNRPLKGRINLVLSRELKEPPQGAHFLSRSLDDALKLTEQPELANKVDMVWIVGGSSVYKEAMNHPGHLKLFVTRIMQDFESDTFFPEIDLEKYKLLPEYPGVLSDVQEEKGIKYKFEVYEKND
Experimental: Pure human dihydrofolate reductase from lymphoblastoid cells were used. The enzymatic assay was performed as described by Pastore, Plante and Kisliuk in Methods in Enzymology 34:281 (1974).

[8] = test system: H35 hepatoma cells (folinic acid transport); assay: Inhibition of folinic acid transport to H35 hepatoma cells; assay type: cell-based; conditions: for IC50: 0.25 h, Folinic acid 2 μM, 15 min uptake, read-out: I50, inhibition of folinic acid transport to H35 hepatoma cells; for transport to H35 hepatoma cells compared to methotrexate: ability to compete with folinic acid transport; for transport to tumor cells compared to methotrexate: fold versus methotrexate
[9] = test system: three tumor models; assay: Antitumor activity in three tumor models (Table I); assay type: cell-based; conditions: result in words
Experimental: Manca cell growth assay was performed as described by Thorndike, Gaumont, Kisliuk, Sirotnak, Murthy and Nair in Cancer Research 49:158 (1989). Growth inhibition of H35hepatoma cells was measured as described by Patil, Jones, Nair, Galivan, Maley, Kisliuk, Gaumont, Duch and Ferone in the Journal of Medicinal Chemistry 32:1284 (1989) and that of CCRF-CEM human leukemia cells according to the procedures of McGuire, Graber, Licato, Vincenz, Coward, Nimec and Galivan (Cancer Research 49:4517, 1989).

[10] = assay type: physicochemical
Description: In stage II the mixed anhydride 6 or 7 is reacted with an excess amount of a diester of .tau.-methyleneglutamic acid such as diethyl-.tau.-methyleneglutamic acid. Dimethyl, dibenzyl or di-t-butyl-.tau.-methylene glutamic acid may be substituted for the diethyl derivative. Diethyl-.tau.-methylene glutamate may be added as the hydrochloride form to the mixed anhydride solutions 6 or 7, followed by the addition of an equal amount or an excess of an acid acceptor such as triethylamine. Alternatively, diethyl-.tau.-methyleneglutamate hydrochloride may be dissolved in a suitable solvent such as DMF, neutralized with an equivalent amount of the acid acceptor, and then added to the mixed anhydride solution. This reaction mixture is stirred for 18 hours at 25-30° C. and the solvent is removed by evaporation under reduced pressure. The resulting coupled product is stirred with an excess of a mixture of 0.1 N NaOH and acetonitrile for 18 hours to give target compounds 1 or 2. […] The precipitate can be recovered by filtration, washed and dried.
For the preparation of compound 3 (Scheme 3), the solution of the mixed anhydride 6 is reacted with an excess amount of the diester of 3-hydroxyglutamic acid such as dimethyl-3-hydroxyglutamate. Diethyl, dibenzyl or di-t-butyl-3-hydroxyglutamate may be substituted for the dimethyl derivative. Dimethyl-3-hydroxyglutamate may be added to the solution of the mixed anhydrie as the hydrochloride followed by the addition of an equivalent or excess amount of the acid acceptor such as triethylamine. Alternatively, dimethyl-3-hydroxyglutamate hydrochloride may be dissolved in a suitable solvent such as DMF, neutralized with an equivalent amount of the acid acceptor such as triethylamine or N-methylmorpholine and then added to the mixed anhydride solution. The reaction mixture is then stirred for 18-24 hours at 25-30° C. and the solvent is removed by rotary evaporation under reduced pressure The resulting product is stirred with an excess of a 3:1 mixture of 0.1 N NaOH:acetonitrile for 10-18 hours to give target compound 3. […]

[11] = test system: mammalian cells; conditions: versus MTX; cited from earlier work
[12] = test system: antitumor activity; conditions: result in words; cited from earlier work
[13] = cited from earlier work; remark: listed apart in the source
[14] = cited from earlier work; remark: listed apart in the source
[15] = Homo sapiens; CCRF-CEM; value marked *: corrected for the presence of the d-enantiomer of methyleneglutamate; duplicate experiments; read-out: I50, inhibition of tumor cell growth, CCRF-CEM human leukemia (*)
[16] = Homo sapiens; CCRF-CEM; values correspond to duplicate experiments; no asterisk; read-out: I50, inhibition of tumor cell growth, CCRF-CEM human leukemia
[17] = human leukemia cells; on a comparative basis

Structure (SMILES) | Substrate activity [1] | IC50 [4] [nM] | IC50 [5] [nM] | IC50 [7] [nM] | IC50 [8] [nM] | solubility in alkali [10] | metabolism to polyglutamyl derivatives [2] | substrate for folylpolyglutamate synthetase [1] | antitumor activity in three tumor models [9] | further results
C#CCN(Cc1ccc2nc(N)[nH]c(=O)c2c1)c1ccc(C(=O)N[C@@H](CCC(=O)O)C(=O)O)cc1 [CB 3717, N^10-propargyl-5,8-dideazafolic acid] | – | – | – | – | – | – | – | – | – | conversion to polyglutamyl derivative in normal murine tissues [3]: converted to its polyglutamyl derivatives in normal murine tissues
C=C(CC(NC(=O)c1ccc(CCc2cnc3nc(N)nc(N)c3n2)cc1)C(=O)O)C(=O)O (stereo not shown) [Compound 1, 4-amino-4-deoxy-10-deazapteroyl-.tau.-methyleneglutamic acid] | 5 and 3 | 9 | 7 | 30 | 4 | soluble in alkali | – | not substrates of CCRF-CEM human leukemia cell folylpolyglutamate synthetase; also recorded: None of the new antifolates (1, 2 or 3) is a substrate for folylpolyglutamate synthetase | excellent antitumor activity | IC50 [6, 15]: 5 nM; IC50 [6, 16]: 4 nM; inhibition of growth of human leukemia cells compared to methotrexate [6, 17]: twice as powerful as methotrexate; transport to H35 hepatoma cells compared to methotrexate [8]: transported more efficiently to H35 hepatoma cells than methotrexate; transport to tumor cells compared to methotrexate [8]: three to five times more efficiently than methotrexate
CCC(Cc1cnc2nc(N)nc(N)c2n1)c1ccc(C(=O)N[C@@H](CCC(=O)O)C(=O)O)cc1 (stereo partly shown) [Compound 10-EDAM, 10-ethyl-10-deazaaminopterin] | – | – | – | – | – | – | metabolized to their poly-.tau.-glutamyl derivatives | – | – | metabolism to polyglutamyl derivatives ([2]; listed as 10-ethyl derivative): undergo polyglutamylation; transport to mammalian cells compared to MTX [11]: enhanced transport to mammalian cells compared to MTX; antitumor activity [12]: wide spectrum of antitumor activity
CN(Cc1cnc2nc(N)nc(N)c2n1)c1ccc(C(=O)N[C@@H](CCC(=O)O)C(=O)O)cc1 [Methotrexate, reference compound] | – | 10 | 6 | – | 18 | – | undergo polyglutamylation | – | – | IC50 ([6]; CCRF-CEM; values correspond to duplicate experiments; no asterisk; read-out: I50, inhibition of tumor cell growth, CCRF-CEM human leukemia): 8 nM; IC50 ([6]; Homo sapiens, CCRF-CEM; values correspond to duplicate experiments; no asterisk; read-out: I50, inhibition of tumor cell growth, CCRF-CEM human leukemia): 12 nM; metabolism to polyglutamyl derivatives ([2]; listed as MTX): metabolized to their poly-.tau.-glutamyl derivatives; metabolism to poly-glutamates in human tissues [13]: metabolism of the well known anticancer drug methotrexate to its poly-.tau.-glutamates in human tissues; formation of poly-glutamyl metabolites in rodent tissues [14]: formation of these metabolites in rodent tissues

Further lines, with some results ahead:

Substrate activity [1] | IC50 [4] [nM] | IC50 [5] [nM] | IC50 [7] [nM] | IC50 [8] [nM] | solubility in alkali [10] | Structure (SMILES) | metabolism to polyglutamyl derivatives [2] | substrate for folylpolyglutamate synthetase [1] | antitumor activity in three tumor models [9] | further results
1020 | – | – | – | – | – | Nc1nc(N)c2nc(CCc3ccc(C(=O)N[C@@H](CCC(=O)O)C(=O)O)cc3)cnc2n1 [10-Deazaaminopterin, reference compound] | undergo polyglutamylation | – | – | –
3 and 6 | 11 | 9 | 32 | 3 | soluble in alkali | C=C(CC(NC(=O)c1ccc(C(CC)Cc2cnc3nc(N)nc(N)c3n2)cc1)C(=O)O)C(=O)O (stereo not shown) [Compound 2, 4-amino-4-deoxy-10-ethyl-10-deazapteroyl-.tau.-methyleneglutamic acid] | – | not substrates of CCRF-CEM human leukemia cell folylpolyglutamate synthetase; also recorded: None of the new antifolates (1, 2 or 3) is a substrate for folylpolyglutamate synthetase | excellent antitumor activity | IC50 [6, 15]: 6 nM; IC50 [6, 16]: 4 nM; inhibition of growth of human leukemia cells compared to methotrexate [6, 17]: twice as powerful as methotrexate; transport to H35 hepatoma cells compared to methotrexate [8]: transported more efficiently to H35 hepatoma cells than methotrexate; transport to tumor cells compared to methotrexate [8]: three to five times more efficiently than methotrexate
8 and 10 | 28 | 15 | 33 | – | soluble in alkali | Nc1nc(N)c2nc(CCc3ccc(C(=O)NC(C(=O)O)C(O)CC(=O)O)cc3)cnc2n1 (stereo not shown) [Compound 3, 4-amino-4-deoxy-10-deazapteroyl-3-hydroxyglutamic acid] | – | not substrates of CCRF-CEM human leukemia cell folylpolyglutamate synthetase; also recorded: None of the new antifolates (1, 2 or 3) is a substrate for folylpolyglutamate synthetase | excellent antitumor activity | –
